Reference: patent US8153389B2, “Methods for the identification of PI3K interacting molecules and for the purification of PI3K” (CellZone AG, priority 2006, dated 2012)

Key:
PI3K gamma = target: T1, PI3K gamma (Homo sapiens, UniProt P48736); test: Drug pulldown with immobilized phenylthiazole ligand 1 from MOLT-4 lysate, Western blot; type: binding; details: 50 mg protein, FIG. 2A
T1 construct: PI3K gamma protein was captured by immobilized phenylthiazole ligand 1 from MOLT-4 cell lysate; endogenous in cells; host or cells: MOLT-4 cells (human T cell line, ATCC CRL-1582), cell lysate
T1 sequence (P48736 whole entry): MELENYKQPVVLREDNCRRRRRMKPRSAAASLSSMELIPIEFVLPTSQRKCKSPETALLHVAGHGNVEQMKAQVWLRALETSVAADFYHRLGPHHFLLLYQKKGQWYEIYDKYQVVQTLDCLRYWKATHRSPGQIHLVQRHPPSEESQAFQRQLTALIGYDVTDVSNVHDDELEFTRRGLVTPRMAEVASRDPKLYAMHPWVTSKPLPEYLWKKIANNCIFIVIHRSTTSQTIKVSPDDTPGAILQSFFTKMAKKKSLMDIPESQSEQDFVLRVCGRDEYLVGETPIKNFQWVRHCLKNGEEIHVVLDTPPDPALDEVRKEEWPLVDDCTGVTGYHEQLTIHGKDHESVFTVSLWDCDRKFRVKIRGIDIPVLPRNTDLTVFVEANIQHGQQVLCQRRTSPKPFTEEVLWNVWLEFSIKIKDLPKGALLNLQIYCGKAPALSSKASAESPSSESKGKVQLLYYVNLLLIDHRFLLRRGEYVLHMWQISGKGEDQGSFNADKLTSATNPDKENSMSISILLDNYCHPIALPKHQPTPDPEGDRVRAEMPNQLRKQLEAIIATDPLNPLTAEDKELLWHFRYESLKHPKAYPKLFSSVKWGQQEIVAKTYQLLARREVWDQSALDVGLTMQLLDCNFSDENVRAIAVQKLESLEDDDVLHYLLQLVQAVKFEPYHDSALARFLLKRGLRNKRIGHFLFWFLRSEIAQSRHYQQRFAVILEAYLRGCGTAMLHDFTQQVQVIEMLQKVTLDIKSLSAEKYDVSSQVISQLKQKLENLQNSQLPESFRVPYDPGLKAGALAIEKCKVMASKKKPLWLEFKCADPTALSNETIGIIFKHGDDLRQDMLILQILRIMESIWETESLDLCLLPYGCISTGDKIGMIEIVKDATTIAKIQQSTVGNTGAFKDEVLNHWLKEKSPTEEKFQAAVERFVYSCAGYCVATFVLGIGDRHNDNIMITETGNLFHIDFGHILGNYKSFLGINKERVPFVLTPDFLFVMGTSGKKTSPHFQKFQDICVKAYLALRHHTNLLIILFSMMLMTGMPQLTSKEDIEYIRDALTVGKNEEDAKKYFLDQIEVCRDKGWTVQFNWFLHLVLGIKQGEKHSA
Experimental: (§1) As biological material a cell lysate prepared from MOLT-4 cells was used. The drug pulldown experiment was performed as described in Example 2 with lysate samples containing 50 mg of protein. Captured proteins were eluted with DMSO containing buffer (lane 1), 100 μM of free phenylthiazole ligand 1 or SDS sample buffer (lane 3). The eluted samples were separated on SDS-polyacrylamide gels and transferred to membranes. The blots were first incubated with specific antibodies directed against PI3K gamma (FIG. 2A) and PI3K delta (FIG. 2B). Secondary detection antibodies labeled with fluorescent dyes for detection were used with the Odyssey infrared imaging system.
(§2) To this end a lysate of MOLT-4 cells was contacted with the affinity matrix described in example 1. […]
(§3) For Western blot analysis bound proteins were eluted from the affinity matrix and subsequently separated by SDS-Polyacrylamide gel electrophoresis. PI3K gamma and PI3K delta were detected with specific antibodies (FIG. 2).
(§4) MOLT-4 cells were homogenized in a Potter S homogenizer in lysis buffer: 50 mM Tris-HCl, 0.8% NP40, 5% glycerol, 150 mM NaCl, 1.5 mM MgCl2, 25 mM NaF, 1 mM sodium vanadate, 1 mM DTT, pH 7.5. […] The supernatant was transferred again to a fresh 50 ml falcon tube, the protein concentration was determined by a Bradford assay (BioRad) and samples containing 50 mg of protein per aliquot were prepared. […]

PI3K delta = target: T2, PI3K delta (Homo sapiens, UniProt O00329); test: as above; type: binding; details: 50 mg protein, FIG. 2B
T2 construct: immobilized phenylthiazole ligand 1 captures (pulls down) PI3K gamma and PI3K delta from the cell lysate; endogenous in cells; host or cells: MOLT-4 cells (human T cell line, ATCC CRL-1582), cell lysate
T2 sequence (O00329 whole entry): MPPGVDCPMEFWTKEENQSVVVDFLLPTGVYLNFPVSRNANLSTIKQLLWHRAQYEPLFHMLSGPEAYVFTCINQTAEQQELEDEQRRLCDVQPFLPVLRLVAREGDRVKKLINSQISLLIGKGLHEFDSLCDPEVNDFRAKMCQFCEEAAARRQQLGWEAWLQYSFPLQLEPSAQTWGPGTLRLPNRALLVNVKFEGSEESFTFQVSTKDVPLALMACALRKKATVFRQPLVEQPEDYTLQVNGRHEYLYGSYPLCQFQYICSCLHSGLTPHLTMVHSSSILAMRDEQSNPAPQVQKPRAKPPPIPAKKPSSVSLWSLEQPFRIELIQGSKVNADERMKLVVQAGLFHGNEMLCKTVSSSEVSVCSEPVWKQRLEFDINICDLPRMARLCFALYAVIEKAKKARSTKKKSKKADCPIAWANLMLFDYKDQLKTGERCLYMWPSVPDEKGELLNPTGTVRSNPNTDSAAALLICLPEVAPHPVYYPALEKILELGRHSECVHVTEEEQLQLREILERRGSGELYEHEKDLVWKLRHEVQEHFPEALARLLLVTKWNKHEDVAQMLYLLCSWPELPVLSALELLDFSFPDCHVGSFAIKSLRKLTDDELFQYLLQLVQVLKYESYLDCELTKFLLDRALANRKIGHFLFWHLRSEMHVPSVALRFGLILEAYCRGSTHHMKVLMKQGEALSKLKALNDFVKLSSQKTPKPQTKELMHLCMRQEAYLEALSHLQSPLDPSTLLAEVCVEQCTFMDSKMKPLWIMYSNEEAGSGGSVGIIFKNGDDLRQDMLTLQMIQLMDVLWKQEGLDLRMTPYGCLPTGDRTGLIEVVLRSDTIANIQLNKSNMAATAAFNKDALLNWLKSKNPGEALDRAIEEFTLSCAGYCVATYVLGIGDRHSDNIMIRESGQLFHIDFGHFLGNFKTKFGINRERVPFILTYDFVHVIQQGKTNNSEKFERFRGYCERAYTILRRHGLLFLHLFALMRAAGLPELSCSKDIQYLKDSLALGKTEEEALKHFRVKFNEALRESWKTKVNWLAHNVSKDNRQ
T2 sequence (P27986 whole entry partner): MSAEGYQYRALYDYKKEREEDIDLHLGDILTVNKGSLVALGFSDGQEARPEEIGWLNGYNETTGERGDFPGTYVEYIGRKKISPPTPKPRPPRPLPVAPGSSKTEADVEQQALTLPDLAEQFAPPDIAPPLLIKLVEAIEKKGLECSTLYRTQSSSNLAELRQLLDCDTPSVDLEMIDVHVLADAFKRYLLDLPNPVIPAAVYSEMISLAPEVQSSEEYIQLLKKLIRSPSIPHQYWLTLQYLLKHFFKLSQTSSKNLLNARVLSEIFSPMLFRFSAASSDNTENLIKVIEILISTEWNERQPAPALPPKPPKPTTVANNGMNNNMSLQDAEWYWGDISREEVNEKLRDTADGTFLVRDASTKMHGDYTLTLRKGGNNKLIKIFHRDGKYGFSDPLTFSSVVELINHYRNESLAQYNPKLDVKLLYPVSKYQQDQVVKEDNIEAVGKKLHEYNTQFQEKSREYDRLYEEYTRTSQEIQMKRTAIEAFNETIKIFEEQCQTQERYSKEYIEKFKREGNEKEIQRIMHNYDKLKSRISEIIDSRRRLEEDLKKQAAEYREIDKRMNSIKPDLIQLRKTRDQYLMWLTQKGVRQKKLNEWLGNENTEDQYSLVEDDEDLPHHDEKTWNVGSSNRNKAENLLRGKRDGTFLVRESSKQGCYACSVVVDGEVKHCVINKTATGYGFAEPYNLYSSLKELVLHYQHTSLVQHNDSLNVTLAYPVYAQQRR
Experimental: as §1, §2, §3, §4

## Cc1nc(NC(=O)CCOCCOCCOCCOCCN)sc1-c1ccc(Cl)c(S(C)(=O)=O)c1.Cl [phenylthiazole ligand 1, 3-(2-{2-[2-(2-amino-ethoxy)-ethoxy]-ethoxy}-ethoxy)-N-[5-(4-chloro-3-methanesulfonyl-phenyl)-4-methyl-thiazol-2yl]-propionamide hydrochloride]
PI3K gamma
  Capture (pull down) of PI3K gamma from the cell lysate: captures
PI3K delta
  Capture (pull down) of PI3K delta from the cell lysate: captures
